According to PubChem BioAssay (NCI):
Values joined by “and” are separate entries in the source; they are usually repeats but may differ in a detail not shown here. Equal entries are not always repeated.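 Values below derive from 48-hour exposures of cells grown in 96-well plates, with endpoints linearly interpolated between the two concentrations bracketing the appropriate inhibition level. GI50: concentration for 50% inhibition of growth. TGI: total growth inhibition.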

What was measured:
Test in all cases: NCI tumour cell line growth inhibition, 48 h
786-0 renal = tested on: 786-0 renal
A498 renal = tested on: A498 renal
HS 578T breast = tested on: HS 578T breast
KM12 colon = tested on: KM12 colon
MALME-3M melanoma = tested on: MALME-3M melanoma
NCI-H226 lung = tested on: NCI-H226 lung
OVCAR-8 ovarian = tested on: OVCAR-8 ovarian
SF-268 CNS = tested on: SF-268 CNS
T-47D breast = tested on: T-47D breast
UACC-62 melanoma = tested on: UACC-62 melanoma

SMILES	GI50 (786-0 renal)	TGI (786-0 renal)	GI50 (A498 renal)	TGI (A498 renal)	GI50 (HS 578T breast)	TGI (HS 578T breast)	GI50 (KM12 colon)	TGI (KM12 colon)	GI50 (MALME-3M melanoma)	TGI (MALME-3M melanoma)	GI50 (NCI-H226 lung)	TGI (NCI-H226 lung)	GI50 (OVCAR-8 ovarian)	TGI (OVCAR-8 ovarian)	GI50 (SF-268 CNS)	TGI (SF-268 CNS)	GI50 (T-47D breast)	TGI (T-47D breast)	GI50 (UACC-62 melanoma)	TGI (UACC-62 melanoma)
CC[C@H](C)n1cc(C)c2c(C(=O)NCc3c(C)cc(C)[nH]c3=O)cc(-c3ccc(N4CCNCC4)nc3)cc21	10.6 µM and 11.7 µM	24.4 µM and 25.2 µM	15.4 µM and 12.6 µM	30 µM and 26.9 µM	13.6 µM and 13.2 µM	30.9 µM and 33.1 µM	11.4 µM and 10.7 µM	24.2 µM and 23.6 µM	8 µM and 2.51 µM	21.5 µM and 6.78 µM	16.3 µM and 17.3 µM	36.5 µM and 36.9 µM	18.5 µM and 17.7 µM	37.4 µM and 37.6 µM	14.7 µM and 13 µM	29.8 µM and 27.8 µM	16.6 µM and 11.4 µM	36.3 µM and 28.4 µM	17.5 µM and 14.3 µM	33.2 µM and 28.5 µM
COc1cccc(C2C3=C(COC3=O)N(CCO)c3cc4c(cc32)OCCO4)c1 (centres undefined)	0.198 µM	> 50 µM	0.0264 µM	0.276 µM	0.114 µM	22.1 µM	0.0798 µM	1.85 µM	49.1 µM	> 50 µM	7.26 µM	> 50 µM	0.22 µM	> 50 µM	0.355 µM	> 50 µM	0.239 µM	> 50 µM	–	> 50 µM
N#Cc1c(-c2ccccc2)cc(-c2ccccc2)n(CCCCC(=O)NO)c1=O	2.83 µM	9.13 µM	1.25 µM	3.55 µM	2.03 µM	8.18 µM	2.8 µM	13.6 µM	1.25 µM	13.3 µM	3.98 µM	19 µM	2.16 µM	14 µM	2.71 µM	7.9 µM	1.93 µM	7.99 µM	2.2 µM	6.02 µM
C[C@H]1CC[C@@H]2[C@@H](C)[C@H]3[C@H](C[C@H]4[C@@H]5CC=C6C[C@@H](O)CC[C@]6(C)[C@H]5C[C@H](O)[C@]34C)N2C1	–	> 100 µM	–	> 100 µM	–	> 100 µM	–	> 100 µM	–	> 100 µM	–	> 100 µM	–	> 100 µM	–	> 100 µM	–	> 100 µM	–	> 100 µM
O=c1[nH]c(SCc2c(Cl)c(Cl)c(Cl)c(Cl)c2Cl)nc(=S)[nH]1	–	> 100 µM	–	> 100 µM	–	> 100 µM	–	> 100 µM	–	73.4 µM	–	> 100 µM	–	> 100 µM	–	> 100 µM	–	> 82.9 µM	–	> 100 µM
N#CN1CCC[C@H]1C(=O)N1CCc2c(-c3[nH]nc4ncccc34)cccc21	< 0.01 µM	11.5 µM	< 0.0114 µM	0.148 µM	0.239 µM	> 100 µM	< 0.01 µM	10.1 µM	0.0279 µM	16.7 µM	0.051 µM	0.219 µM	< 0.01 µM	11 µM	< 0.01 µM	13.2 µM	0.0227 µM	15 µM	< 0.01 µM	12.2 µM
CC(=O)OCC1OC(OC2=C(CC=C(Cl)Cl)C(=O)c3ccccc3C2=O)C(OC(C)=O)C(OC(C)=O)C1OC(C)=O (centres undefined)	16.6 µM	31.8 µM	3.32 µM	20 µM	3.98 µM	32.2 µM	3.26 µM	10.1 µM	2.66 µM	5.83 µM	15.6 µM	50.5 µM	2.96 µM	8.29 µM	2.75 µM	8.03 µM	1.99 µM	5.41 µM	2.85 µM	11.2 µM
